Measured values published in ChEMBL document CHEMBL1201862, “PubChem BioAssay data set” (2004).
The source made the active and inactive calls.

Experiments:
[1] = target: T1, Dual specificity protein phosphatase 3 (Homo sapiens, UniProt P51452); assay: VHR1 phosphatase inhibitors, primary screen, biochemical, absorbance, uHTS (AID 1654)
[2] = target: T1, Dual specificity protein phosphatase 3; assay: VHR1 phosphatase inhibitors, biochemical (AID 1878)
[3] = target: T2, Dual specificity protein phosphatase 6 (Rattus norvegicus, UniProt Q64346); assay: MKP-3 phosphatase inhibitors, primary screen, biochemical, rat enzyme, in vitro (AID 425)
T2 sequence (Q64346 whole entry): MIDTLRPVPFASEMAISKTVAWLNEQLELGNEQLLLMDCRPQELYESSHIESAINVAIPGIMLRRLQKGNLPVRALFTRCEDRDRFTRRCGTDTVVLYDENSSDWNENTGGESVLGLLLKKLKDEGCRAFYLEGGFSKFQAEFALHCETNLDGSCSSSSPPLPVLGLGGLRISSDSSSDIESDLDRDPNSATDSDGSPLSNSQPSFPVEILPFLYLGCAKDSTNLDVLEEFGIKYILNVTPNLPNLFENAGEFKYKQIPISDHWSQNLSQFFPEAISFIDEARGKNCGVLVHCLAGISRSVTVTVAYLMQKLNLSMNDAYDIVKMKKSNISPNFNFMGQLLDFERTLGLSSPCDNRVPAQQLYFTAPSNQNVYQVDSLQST

[4] = target: DNA dC->dU-editing enzyme APOBEC-3A (Homo sapiens, UniProt P31941); assay: APOBEC3A DNA deaminase inhibitors, dose response, biochemical (AID 504722); assay type: functional
[5] = target: Glucose-6-phosphate 1-dehydrogenase (Homo sapiens, UniProt P11413); assay: human G6PD enzyme inhibitors, dose response, selectivity assay for P. falciparum G6PD inhibitor project, biochemical, fluorescence (AID 504792); assay type: functional
[6] = target: DNA dC->dU-editing enzyme APOBEC-3G (Homo sapiens, UniProt Q9HC16); assay: Dose Response confirmation of small molecule APOBEC3G DNA Deaminase Inhibitors via a fluorescence-based single-stranded DNA deaminase assay. [Related pubchem assays (depositor defined):AID493012, AID493028]; assay type: functional
[7] = target: T3, Tyrosine-protein phosphatase non-receptor type 11 (Homo sapiens, UniProt Q06124); assay: SHP2 phosphatase inhibition, dose response, selectivity assay for STEP inhibitor project, biochemical (AID 602367); assay type: functional; conditions: read-out: IC50_Mean
T3 sequence (Q06124 whole entry): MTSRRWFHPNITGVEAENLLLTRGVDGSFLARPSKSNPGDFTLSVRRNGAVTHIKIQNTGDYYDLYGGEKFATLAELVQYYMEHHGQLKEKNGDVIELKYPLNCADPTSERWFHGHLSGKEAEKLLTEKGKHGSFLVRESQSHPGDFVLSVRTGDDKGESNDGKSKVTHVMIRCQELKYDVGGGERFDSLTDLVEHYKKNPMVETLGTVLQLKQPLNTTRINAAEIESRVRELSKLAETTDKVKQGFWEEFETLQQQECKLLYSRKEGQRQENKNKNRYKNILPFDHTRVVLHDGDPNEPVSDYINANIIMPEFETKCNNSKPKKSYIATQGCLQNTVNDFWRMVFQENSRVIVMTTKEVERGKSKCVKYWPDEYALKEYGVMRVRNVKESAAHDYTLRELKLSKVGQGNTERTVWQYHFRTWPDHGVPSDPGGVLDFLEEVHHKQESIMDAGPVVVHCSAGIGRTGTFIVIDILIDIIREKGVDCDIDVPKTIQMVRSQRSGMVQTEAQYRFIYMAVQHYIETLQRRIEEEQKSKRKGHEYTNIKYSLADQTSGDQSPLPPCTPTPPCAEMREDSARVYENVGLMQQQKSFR

[8] = target: T4, Tyrosine-protein phosphatase non-receptor type 5 (Homo sapiens, UniProt P54829); assay: STEP phosphatase inhibitors, confirmation, biochemical, fluorescence intensity, uHTS hits (AID 602372); assay type: functional; conditions: read-out: IC50_Mean
T4 sequence (P54829 whole entry): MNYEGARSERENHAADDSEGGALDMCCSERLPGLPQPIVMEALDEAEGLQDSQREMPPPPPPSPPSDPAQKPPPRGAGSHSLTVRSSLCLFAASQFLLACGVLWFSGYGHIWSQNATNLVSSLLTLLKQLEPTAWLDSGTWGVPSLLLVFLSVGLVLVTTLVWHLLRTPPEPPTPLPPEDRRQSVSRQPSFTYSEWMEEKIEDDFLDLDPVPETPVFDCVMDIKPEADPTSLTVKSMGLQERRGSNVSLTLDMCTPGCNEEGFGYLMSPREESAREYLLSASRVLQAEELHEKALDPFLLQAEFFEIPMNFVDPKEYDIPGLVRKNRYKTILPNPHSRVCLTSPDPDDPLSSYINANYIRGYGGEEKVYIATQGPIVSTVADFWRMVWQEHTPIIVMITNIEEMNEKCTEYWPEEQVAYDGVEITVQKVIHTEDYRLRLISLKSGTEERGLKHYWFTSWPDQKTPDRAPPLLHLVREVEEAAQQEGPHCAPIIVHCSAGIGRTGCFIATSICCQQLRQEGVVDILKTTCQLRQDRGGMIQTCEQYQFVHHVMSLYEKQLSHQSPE

[9] = target: T1, Dual specificity protein phosphatase 3; assay: VHR phosphatase inhibition, dose response, selectivity assay for STEP inhibitor project, biochemical (AID 602374); assay type: functional; conditions: read-out: IC50_Mean
[10] = target: T5, Tyrosine-protein phosphatase non-receptor type 22 (Homo sapiens, UniProt Q9Y2R2); assay: PTPN22 phosphatase inhibition, dose response, selectivity assay for STEP inhibitor project, biochemical (AID 624241); assay type: functional
T5 sequence (Q9Y2R2 whole entry): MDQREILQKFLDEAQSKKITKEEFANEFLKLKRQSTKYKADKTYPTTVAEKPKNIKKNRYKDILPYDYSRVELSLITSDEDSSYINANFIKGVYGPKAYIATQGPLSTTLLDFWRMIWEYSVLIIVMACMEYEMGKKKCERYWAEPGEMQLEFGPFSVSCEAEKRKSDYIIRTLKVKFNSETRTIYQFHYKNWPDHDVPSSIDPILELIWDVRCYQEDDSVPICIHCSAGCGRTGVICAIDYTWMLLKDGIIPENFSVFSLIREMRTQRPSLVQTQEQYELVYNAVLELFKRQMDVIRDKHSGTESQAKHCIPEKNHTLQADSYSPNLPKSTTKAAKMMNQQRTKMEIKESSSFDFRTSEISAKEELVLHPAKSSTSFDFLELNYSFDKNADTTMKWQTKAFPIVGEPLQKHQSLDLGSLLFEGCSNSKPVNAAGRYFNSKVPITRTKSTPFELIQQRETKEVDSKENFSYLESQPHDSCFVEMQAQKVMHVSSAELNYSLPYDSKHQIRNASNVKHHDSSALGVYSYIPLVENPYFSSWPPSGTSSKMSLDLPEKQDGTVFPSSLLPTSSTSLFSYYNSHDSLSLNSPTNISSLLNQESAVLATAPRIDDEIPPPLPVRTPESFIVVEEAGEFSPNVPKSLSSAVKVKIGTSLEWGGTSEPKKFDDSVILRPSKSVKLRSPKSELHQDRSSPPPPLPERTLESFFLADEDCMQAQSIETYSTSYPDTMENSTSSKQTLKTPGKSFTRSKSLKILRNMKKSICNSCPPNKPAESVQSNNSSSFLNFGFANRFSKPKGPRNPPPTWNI

[11] = target: T1, Dual specificity protein phosphatase 3; assay: SAR VHR1 Fluorescent Assay for In Vitro dose response studies. [Related pubchem assays (depositor defined):AID1654, AID1661, AID1878, AID1992, AID2004, AID2070, AID2085]; assay type: functional
[12] = target: T6, Tyrosine-protein phosphatase non-receptor type 7 (Homo sapiens, UniProt P35236); assay: redox-dependent HePTP inhibition, mechanism study, biochemical, fluorescence (AID 2068); assay type: functional
T6 sequence (P35236 whole entry): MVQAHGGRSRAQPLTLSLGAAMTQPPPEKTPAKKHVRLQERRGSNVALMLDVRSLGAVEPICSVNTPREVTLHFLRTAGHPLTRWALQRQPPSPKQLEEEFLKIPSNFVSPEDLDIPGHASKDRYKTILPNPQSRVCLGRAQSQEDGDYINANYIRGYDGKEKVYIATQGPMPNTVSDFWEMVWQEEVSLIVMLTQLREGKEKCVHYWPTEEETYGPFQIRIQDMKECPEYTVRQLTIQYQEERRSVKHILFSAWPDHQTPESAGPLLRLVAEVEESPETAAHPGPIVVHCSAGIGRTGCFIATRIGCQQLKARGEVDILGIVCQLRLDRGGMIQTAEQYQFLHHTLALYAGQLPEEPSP

[13] = target: G-protein coupled receptor 55 (Homo sapiens, UniProt Q9Y2T6); assay: GPR55 agonists via beta-arrestin recruitment, primary screen, imaging, U2OS cells, beta-arrestin-GFP redistribution (AID 1961); assay type: functional
[14] = NIH-3T3 fibroblast cytotoxicity, dose response, cytotoxicity control, cell-based, fluorescence, Alamar Blue, secondary assay (AID 2327); assay type: functional;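 note: NIH-3T3 mouse fibroblasts cultured with fluconazole at 8 µg/mL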
[15] = tested on: Streptococcus sp. 'group A'; assay: growth inhibition of control SK(-) GAS strain, dose response, counter-screen for streptokinase expression inhibitor project, luminescence, kanamycin, BacTiterGlo, confirmation (AID 1900); assay type: functional, organism-based
cells [16] = assay type: functional, cell-based
Streptokinase A = target: T7, Streptokinase A (Streptococcus pyogenes serotype M1, UniProt P10520); assay: S. pyogenes streptokinase expression inhibitors, potency, dose response, plasminogen activation absorbance, OD405 (AID 1914); assay type: functional, Streptococcus pyogenes M1 GAS;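 note: secreted streptokinase activity via plasminogen activation per viability signal from cell pellet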
T7 sequence (P10520 whole entry): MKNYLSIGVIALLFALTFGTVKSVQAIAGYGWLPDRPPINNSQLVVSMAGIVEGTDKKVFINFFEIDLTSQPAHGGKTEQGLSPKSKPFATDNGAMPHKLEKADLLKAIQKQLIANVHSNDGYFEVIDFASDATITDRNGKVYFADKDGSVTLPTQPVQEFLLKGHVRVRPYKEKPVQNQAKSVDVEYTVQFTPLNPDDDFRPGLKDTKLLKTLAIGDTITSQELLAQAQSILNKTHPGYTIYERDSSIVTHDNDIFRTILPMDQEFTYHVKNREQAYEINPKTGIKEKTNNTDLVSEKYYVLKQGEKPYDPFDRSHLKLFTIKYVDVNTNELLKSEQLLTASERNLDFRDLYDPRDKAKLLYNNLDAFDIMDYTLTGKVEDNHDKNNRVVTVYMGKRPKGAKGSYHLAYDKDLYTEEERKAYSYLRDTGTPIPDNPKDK

[17] = C. albicans growth with fluconazole, confirmation, fluorescence, retest (AID 2467); assay type: functional, cell-based
[18] = inhibitors of intracellular T. cruzi replication, confirmation, NIH3T3 host cells, beta-gal luminescence (AID 2044); assay type: functional, cell-based;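 note: intracellular parasites grown in NIH/3T3 mouse fibroblasts as host cells; luminescent beta-galactosidase reporter signal from transgenic T. cruzi replicating inside host cells; inhibitors lower the luminescence signal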
cells [19] = assay type: functional, cell-based; remark: listed apart in the source
[20] = target: T8, Serine/threonine-protein phosphatase (Candida dubliniensis (strain CD36 / CBS 7987 / NCPF 3949 / NRRLY-17841) (Yeast), UniProt B9W6M3); assay: calcineurin pathway inhibitors in yeast reporter, dose response, S. cerevisiae, CDRE-lacZ, luminescence, secondary (AID 2388); assay type: functional, cell-based;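 note: yeast reporter cells carrying a calcineurin-responsive lacZ construct stimulated with calcium chloride; luminescent beta-galactosidase reporter signal in whole cells rather than isolated phosphatase activity; potency for inhibition where a drop in reporter signal means calcineurin blockade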
T8 sequence (B9W6M3 whole entry): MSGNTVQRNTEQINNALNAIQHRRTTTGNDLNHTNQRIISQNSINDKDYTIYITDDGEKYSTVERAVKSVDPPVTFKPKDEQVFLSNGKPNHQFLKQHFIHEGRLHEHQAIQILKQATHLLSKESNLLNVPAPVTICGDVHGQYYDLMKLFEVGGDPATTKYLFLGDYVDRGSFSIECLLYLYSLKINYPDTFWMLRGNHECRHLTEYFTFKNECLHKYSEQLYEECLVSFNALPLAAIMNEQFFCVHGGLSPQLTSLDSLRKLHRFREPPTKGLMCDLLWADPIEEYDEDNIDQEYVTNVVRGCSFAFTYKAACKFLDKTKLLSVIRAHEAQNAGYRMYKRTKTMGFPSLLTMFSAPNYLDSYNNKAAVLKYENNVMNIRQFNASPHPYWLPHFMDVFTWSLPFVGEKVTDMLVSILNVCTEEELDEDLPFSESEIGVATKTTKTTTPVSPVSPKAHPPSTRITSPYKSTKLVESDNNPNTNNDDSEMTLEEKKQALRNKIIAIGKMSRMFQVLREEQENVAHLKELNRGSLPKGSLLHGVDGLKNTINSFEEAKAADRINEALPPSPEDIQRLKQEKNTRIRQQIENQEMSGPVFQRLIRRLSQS

[21] = cytotoxicity toward NIH3T3 fibroblasts, dose response, counter-screen, cell-based, ATP luminescence, mouse fibroblasts (AID 2010); assay type: functional;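 note: cells exposed to compound for about 90 hours before reading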
Streptococcus = assay: Group A Streptococcus viability loss, dose response, counter-screen for streptokinase expression inhibitor project, luminescence, BacTiterGlo (AID 1915); assay type: functional, organism-based;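 note: potency for reduction of bacterial viability or growth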
INS1 = assay: beta cell apoptosis inhibitors, cytokine rescue, dose response, luminescence, retest (AID 449756); assay type: functional, cell-based; conditions: Rattus norvegicus;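 note: cell death triggered by IL-1 beta plus TNF-alpha plus IFN-gamma mixture; protective hits raise ATP signal compared with cytokine alone wells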
[22] = target: ATP-dependent molecular chaperone HSP82 (Candida albicans (strain WO-1) (Yeast), UniProt C4YTQ8); assay: loss of DOC-induced GRE-beta-galactosidase reporter signal, dose response, Hsp90 inhibitor project, S. cerevisiae, luminescence (AID 2400); assay type: functional, cell-based;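 note: beta-galactosidase luminescence from glucocorticoid response element reporter as proxy for Hsp90 function; inhibitor potency where signal loss means Hsp90 inhibition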
Trypsin = Trypsin (Sus scrofa, UniProt P00761); assay: porcine trypsin inhibitors, dose response, selectivity assay for Rce1 protease inhibitor project, biochemical, quenched peptide fluorescence, cherry-pick (AID 488789)
CAAX prenyl protease 2 = CAAX prenyl protease 2 (Saccharomyces cerevisiae S288c, UniProt Q03530); assay type: biochemical
Sequence of CAAX prenyl protease 2 (Q03530 whole entry): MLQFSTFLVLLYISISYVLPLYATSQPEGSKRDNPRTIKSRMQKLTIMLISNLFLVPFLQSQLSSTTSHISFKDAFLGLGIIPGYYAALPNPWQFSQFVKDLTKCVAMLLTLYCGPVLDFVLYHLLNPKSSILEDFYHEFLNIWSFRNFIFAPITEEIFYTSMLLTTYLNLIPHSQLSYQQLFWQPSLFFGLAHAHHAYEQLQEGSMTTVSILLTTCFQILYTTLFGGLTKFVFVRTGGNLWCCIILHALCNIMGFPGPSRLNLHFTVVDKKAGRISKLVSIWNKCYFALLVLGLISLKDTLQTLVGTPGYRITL

T1 sequence (P51452 whole entry): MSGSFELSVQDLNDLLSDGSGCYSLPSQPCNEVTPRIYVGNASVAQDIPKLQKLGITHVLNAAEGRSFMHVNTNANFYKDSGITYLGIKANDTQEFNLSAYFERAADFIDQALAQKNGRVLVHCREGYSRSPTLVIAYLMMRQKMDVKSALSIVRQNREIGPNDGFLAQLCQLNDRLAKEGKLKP
Sequence of G-protein coupled receptor 55 (Q9Y2T6 whole entry): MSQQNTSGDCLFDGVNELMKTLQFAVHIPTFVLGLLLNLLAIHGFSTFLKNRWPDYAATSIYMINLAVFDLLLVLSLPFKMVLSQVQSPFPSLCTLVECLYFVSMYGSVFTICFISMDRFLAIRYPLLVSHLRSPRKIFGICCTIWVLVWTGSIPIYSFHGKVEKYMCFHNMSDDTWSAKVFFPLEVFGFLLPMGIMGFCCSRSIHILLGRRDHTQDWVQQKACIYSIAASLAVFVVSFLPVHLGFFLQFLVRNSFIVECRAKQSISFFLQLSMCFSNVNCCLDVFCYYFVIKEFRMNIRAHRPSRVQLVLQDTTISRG
Sequence of Trypsin (P00761 whole entry): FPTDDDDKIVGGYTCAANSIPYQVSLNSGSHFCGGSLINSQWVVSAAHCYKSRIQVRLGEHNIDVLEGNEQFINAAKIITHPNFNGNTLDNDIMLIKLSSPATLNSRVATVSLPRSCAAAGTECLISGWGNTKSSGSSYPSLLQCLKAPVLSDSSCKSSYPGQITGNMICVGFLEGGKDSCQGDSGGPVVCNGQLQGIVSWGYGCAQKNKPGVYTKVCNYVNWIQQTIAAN
Sequence of DNA dC->dU-editing enzyme APOBEC-3A (P31941 whole entry): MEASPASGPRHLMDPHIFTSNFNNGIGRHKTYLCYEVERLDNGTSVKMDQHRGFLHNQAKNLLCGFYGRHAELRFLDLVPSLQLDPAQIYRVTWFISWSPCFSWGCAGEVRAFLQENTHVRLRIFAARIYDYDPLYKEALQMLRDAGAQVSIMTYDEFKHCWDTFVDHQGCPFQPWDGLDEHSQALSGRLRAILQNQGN
Sequence of DNA dC->dU-editing enzyme APOBEC-3G (Q9HC16 whole entry): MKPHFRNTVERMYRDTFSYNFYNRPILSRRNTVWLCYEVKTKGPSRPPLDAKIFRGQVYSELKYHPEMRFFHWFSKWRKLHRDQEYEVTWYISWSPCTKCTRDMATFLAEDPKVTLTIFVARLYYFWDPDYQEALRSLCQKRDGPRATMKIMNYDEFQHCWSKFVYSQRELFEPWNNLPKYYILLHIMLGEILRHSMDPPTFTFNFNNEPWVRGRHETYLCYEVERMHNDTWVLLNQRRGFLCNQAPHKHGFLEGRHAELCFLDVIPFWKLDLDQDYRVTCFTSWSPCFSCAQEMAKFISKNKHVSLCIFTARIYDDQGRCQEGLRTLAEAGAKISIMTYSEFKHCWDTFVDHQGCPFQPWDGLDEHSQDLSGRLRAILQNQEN
Sequence of ATP-dependent molecular chaperone HSP82 (C4YTQ8 whole entry): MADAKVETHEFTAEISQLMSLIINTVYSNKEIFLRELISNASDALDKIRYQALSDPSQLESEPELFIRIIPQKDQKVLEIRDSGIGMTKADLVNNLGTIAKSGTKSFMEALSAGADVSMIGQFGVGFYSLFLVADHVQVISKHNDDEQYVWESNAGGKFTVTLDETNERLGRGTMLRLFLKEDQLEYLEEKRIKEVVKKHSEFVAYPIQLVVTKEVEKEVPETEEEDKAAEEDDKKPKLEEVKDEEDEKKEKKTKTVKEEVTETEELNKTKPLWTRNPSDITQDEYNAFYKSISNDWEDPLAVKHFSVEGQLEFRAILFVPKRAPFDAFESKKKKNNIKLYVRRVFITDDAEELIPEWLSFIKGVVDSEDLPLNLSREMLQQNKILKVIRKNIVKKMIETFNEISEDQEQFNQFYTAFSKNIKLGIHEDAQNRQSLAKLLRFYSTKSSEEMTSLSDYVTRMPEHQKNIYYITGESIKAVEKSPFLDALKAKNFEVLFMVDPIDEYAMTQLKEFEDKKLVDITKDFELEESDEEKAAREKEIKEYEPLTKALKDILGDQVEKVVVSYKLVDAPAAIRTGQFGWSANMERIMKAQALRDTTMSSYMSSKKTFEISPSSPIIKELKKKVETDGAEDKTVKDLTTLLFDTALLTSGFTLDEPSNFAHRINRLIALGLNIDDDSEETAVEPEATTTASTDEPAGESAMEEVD
Sequence of Glucose-6-phosphate 1-dehydrogenase (P11413 whole entry): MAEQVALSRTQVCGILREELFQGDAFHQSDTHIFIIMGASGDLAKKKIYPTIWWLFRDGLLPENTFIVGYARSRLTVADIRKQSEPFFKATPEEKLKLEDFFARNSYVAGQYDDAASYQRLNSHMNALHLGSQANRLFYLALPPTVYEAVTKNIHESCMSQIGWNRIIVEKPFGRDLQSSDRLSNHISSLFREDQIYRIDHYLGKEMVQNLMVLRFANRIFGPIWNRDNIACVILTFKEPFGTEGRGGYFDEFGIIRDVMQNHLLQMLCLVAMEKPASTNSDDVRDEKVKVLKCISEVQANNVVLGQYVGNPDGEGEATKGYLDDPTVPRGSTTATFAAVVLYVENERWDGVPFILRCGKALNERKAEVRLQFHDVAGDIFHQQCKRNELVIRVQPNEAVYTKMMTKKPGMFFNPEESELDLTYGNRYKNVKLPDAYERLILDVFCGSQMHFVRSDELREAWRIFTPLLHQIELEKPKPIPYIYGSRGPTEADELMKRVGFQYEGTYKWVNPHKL

CN1CCN(C(=S)C(=O)Nc2ccc(Br)cc2)CC1
IC50 [1]: 4 µM (active)
IC50 [2]: 8.52 µM (active)
IC50 [3]: > 158 µM (not active)
IC50 [4]: > 100 µM (inactive)
IC50 [5]: > 80 µM (inactive)
IC50 [6]: 5.11 µM (active)
IC50 [7]: 0.431 µM (active)
IC50 [8]: 6.57 µM (active)
IC50 [9]: 0.386 µM (active)
IC50 [10]: 9.73 µM (active)

O=C(Nc1ccc2nc(-c3ccco3)c(-c3ccco3)nc2c1)N1CCC(c2ccccc2)C1 (stereo not drawn)
IC50 [11]: 14.7 µM (active)
IC50 [12]: 0.55 µM (active)

Cc1cc2ncn(-c3nnnn3-c3ccccc3)c2cc1C
EC50 [13]: 20 µM (inactive)

CC1CCN(Cc2c(C(=O)N/N=C/c3cc(Cl)ccc3O)nnn2-c2nonc2N)CC1
EC50 [14]: > 150 µM (inconclusive)
EC50 [15]: 27.3 µM (active)
EC50 (cells [16]): 10.7 µM (active)
EC50 (Streptokinase A): 31 µM (active)
EC50 [17]: 0.508 µM (active)
EC50 [18]: 0.541 µM (active)
EC50 (cells [19]): > 350 µM (not active)
EC50 [20]: > 180 µM (inactive)
EC50 [21]: 5.57 µM (active)
EC50 (Streptococcus): > 150 µM (not active)
EC50 [13]: 4.16 µM (active)
AC50 (INS1): 0.457 µM (active)
EC50 [22]: > 150 µM (inactive)

C=CCOc1ccc(-c2nnc(S)o2)cc1
AC50 (Trypsin): 3.91 µM (active)
AC50 (CAAX prenyl protease 2): 22.6 µM (active)
